Results: patent publication US12508245B2, “Co-therapies including a metastasis inhibitor” (priority 2017, dated 2025)

How the values were obtained:
[1] = test system: MDA-MB-231 tumor cells; test: Overall survival of NSG mice implanted with MDA-MB-231 tumor cells, combination treatment with chemotherapy; type: in vivo, human
Method: Vehicle solvent was given to control mice once a day for 6 days every week. Starting on day 15, doxorubicin hydrochloride (Sigma) (2 mg/kg) and cyclophosphamide monohydrate (Sigma) (60 mg/kg) were given to mice once a week for four weeks. Primary tumors were removed on day 29. Death of mice was used as the endpoint.

[2] = Pharmacokinetic study of Compound A in mice: stability of the plasma samples (LC-MS/MS); type: in vitro ADME; conditions: mouse plasma samples, K2 EDTA
Method: Concentrations of Compound A in plasma were determined using high performance liquid chromatography with tandem mass spectrometry (LC MS/MS). All blood samples were transferred into commercial tube containing Potassium (K2) EDTA and processed for plasma. Samples were centrifuged (3000×g for 10 minutes at 2 to 8° C.) within one hour of collection. The assays used a Sciex API 4000 detector and nifedipine as an internal standard. The calibration ranges for Compound A for were 5.00 to 5000 ng/mL. The plasma concentration of Compound A in mice was subjected to a non-compartmental pharmacokinetic analysis by using the Phoenix WinNonlin software (version 6.3, Pharsight, Mountain View, CA). The nominal dose levels and nominal sampling times were used in the calculation of all pharmacokinetic parameters. The linear/log trapezoidal rule was applied in obtaining the PK parameters.

[3] = test system: 4T1 mouse breast tumor cells
Method: Female BALB/c mice (6-8 week old) were purchased from Charles River. 4T1 tumor cells (1×10^5) were injected subcutaneously into the abdominal mammary gland area of mice using 0.1 ml of a single-cell suspension in PBS on Day 0 as previously described. […] Starting on Day 8, when the tumors averaged about ˜4-5 mm in diameter, Compound A or control solvent were given once or twice every day by oral gavage at 10, 30, 100 or 300 mg/kg per mouse until Day 27. On Day 28, the mice were sacrificed. […] Numbers of metastatic 4T1 cells in lungs were determined by the clonogenic assay. In brief, lungs were removed from each mouse, finely minced and digested in 5 ml of enzyme cocktail containing 1×PBS and 1 mg/ml collagenase type IV for 2 hours at 37° C. on a platform rocker. After incubation, samples were filtered through 70-μm nylon cell strainers and washed twice with PBS. Resulting cells were suspended, plated with a series of dilutions in 10 cm tissue culture dishes in DMEM medium containing 60 μM thioguanine for clonogenic growth. As 4T1 tumor cells are resistant to 6-thioguanine, metastasized tumor cells formed foci after 14 days, at which time they were fixed with 4% paraformaldehyde and stained with crystal violet staining solution for counting. […]

[4] = test system: 4T1 breast tumor cells; test: Combination treatment with Compound A and immunotherapy, 4T1 tumor-bearing BALB/c mice, overall survival; type: in vivo, mouse
Method: Female BALB/c mice (6- to 8-week-old) were purchased from Charles River Laboratories. […] Mol Oncol 10, 966-980 (2016). Starting on day 8 or 22, Compound A was given to mice once every day for 5 days a week by oral gavage at 100 mg/kg per mouse. Tumor-bearing mice were given 10 mg/kg anti-PD-1 and 10 mg/kg anti-CTLA-4 antibodies i.p. on day 11, 13, 15, and 17 as previously described. Kim, K. et al. Eradication of metastatic mouse cancers resistant to immune checkpoint blockade by suppression of myeloid-derived cells. Proc Natl Acad Sci USA 111, 11774-11779 (2014). Control group mice were given control mouse IgG at the same time. Primary tumor volume was calculated as length×width^2×π/6.

[5] = test system: MDA-MB-231 human breast tumor cells
Method: MDA-MB-231 cells (subclone LM2) (1×10^5) suspended in PBS were injected subcutaneously into the abdominal mammary gland area of mice on day 1 as previously described. […] On the first day of the ninth week, the mice were killed. […] Numbers of metastatic MDA-MB-231 cells in lungs were determined by the clonogenic assay. In brief, lungs were removed from each mouse once sacrificed, finely minced and digested in 5 ml of enzyme cocktail containing 1×PBS and 1 mg/ml collagenase type IV for 2 h at 37° C. on a platform rocker. After incubation, samples were filtered through 70-μm nylon cell strainers and washed twice with PBS. Resulting cells were suspended, plated with a series of dilutions in 10 cm tissue culture dishes in medium containing 2.0 μg/ml puromycin for clonogenic growth. As these MBA-MB-231 tumor cells were stably transfected with the vector pSuper-puro, metastasized tumor cells formed foci after 14 days, at which time they were fixed with 4% paraformaldehyde and stained with crystal violet staining solution for counting.

## Cc1occc1C(=O)Nc1nn(Cc2ccc(C(F)(F)F)cc2)c2ccccc12 [NP-G2-044]
[1]; NSG mice, MDA-MB-231, primary tumors removed on Day 29, NP-G2-044 started on Day 1, chemotherapy for 4 weeks, death as endpoint (FIG. 2b)
  overall survival of tumor-bearing mice: increases overall survival
[1]; with chemotherapy, NP-G2-044 starting on day 1 or 8 compared with day 15 (FIG. 2d)
  overall survival in the combination therapies, earlier versus late start of NP-G2-044: had better effect than late treatment
[2]
  stability after freeze-thaw, and during storage, processing and analysis: stable
[3]; 4T1 cells implanted into the mammary fat pad (FIG. 1f-g)
  metastasis to the lung, single agent: blocks tumor metastasis
[3]; mouse, in vivo
  tolerability of the dosage regimen: well tolerated with no signs of overt toxicity
[4]; 4T1 tumor-bearing mice, anti-PD-1 and anti-CTLA-4 antibodies, death as endpoint (FIG. 3c)
  overall survival of tumor-bearing mice: increased the overall survival
[4]; NP-G2-044 starting on day 8, with anti-PD-1 and anti-CTLA-4 antibodies (FIG. 3e)
  immunotherapy response (overall survival) in combination therapy, early treatment: boosted the immunotherapy response
[4]; NP-G2-044 starting on day 22, with anti-PD-1 and anti-CTLA-4 antibodies (FIG. 3e)
  immunotherapy response (overall survival) in combination therapy, late treatment: boosted the immunotherapy response
[5]; MDA-MB-231 cells implanted into the mammary fat pad, QD or BID (FIG. 1c-e)
  metastasis to the lung, single agent: blocks tumor metastasis
[5]; in vivo
  tolerability of the dosage regimen: well tolerated with no signs of overt toxicity
